# Results published in patent publication US6469027B1, “N-methyl-D-aspartate (NMDA) receptor blockers for the prevention of atherosclerosis” (The Board of Regents of the University of Nebraska, priority 1996, dated 2002).
# “Also recorded” adds a separate entry of the source. Like-named read-outs stand apart in the source and are kept apart here.
# Legend:
# N-VSMC [1] = assay: Cell proliferation (cell number) of N-VSMC cultures; format: cell-based, chicken; settings: for effect on increase in cell number in the presence of H[cys]: 1% FBS and 100 μM H[cys]; for cell damage after treatment for ten days: low levels of PKC inhibitors, growth after removal
# Procedure: FIGS. 5A and 5B are graphs illustrating cell growth and DNA synthesis of N-VSMC cultures. (A) Cells were cultured in M199 supplemented with 1% FBS in the presence and absence of 100 μM H[cys]. The medium was renewed every three days and cell numbers were determined by Coulter counter or emocytometer. Each point represents the mean of quadruplicate samples counted six times. (B) Cells were grown to confluency, growth arrested in M199 and 1 μg/ml of bovine serum albumin for two days. Cultures were exposed to various concentrations of H[cys] (0.01-1000 μM) for 30 h, pulse labeled for 6 h with 2 μCi/ml of [^3H]thymidine. The amount of [^3H]thymidine incorporation was determined by scintillation spectrophotometry. Results are shown as the mean of ±S.E.M.
# FIGS. 7A-7C are graphs illustrating the effect of H[cys] on diacylglycerol content in N-VSMC. (A) Time course of changes of membrane diacylglycerol content cell treated with 100μM H[cys] for the various times. Cells were recovered, membrane lipids extracted and diacylglycerol amounts determined as described in Methods. Results are expressed as the mean ± standard error of quadruplicate incubations from six independent experiments. (B) Effects of varying concentrations of H[cys] on diacylglycerol synthesis. Cells were treated for 30 min with different concentrations of H[cys] and membrane lipids were isolated and the diacylglycerol content determined. (C) Effect of PKC inhibitors on H[cys] mediated cell proliferation. N-VSMC cultures were grown in 1% FBS and 100 μM H[cys] in the presence and absence of staurosporine and cheleyrithrine chloride for the times (days-d) indicated. Cells were counted in quadruplicate in a Coulter counter every three days. Values represent the mean ±S.D. from four independent experiments.
# (§1) Smooth Muscle Culture: The thoracic (N) and abdominal (M) aorta of normal 16 and 18-day embryos were cleaned of fat, and the intima-media was isolated from the adventitia. The intima-media was enzymatically dispersed into a single cell suspensions by a combination of collagenase and elastase followed by trypsin. VSMC were placed in primary culture at a constant density of 2×10^4 cells/cm^2 in multiwell plates or 100 mm culture plates in Medium 199 supplemented with 10% fetal bovine serum (FMS) and 2 mM glutamine, in an atmosphere of 95% air: 5% Co2 at 37° C. Primary cultures were grown for 7 days before they were seeded into first passage at the same cell density and grown to confluence. Experiments were carried out between passages 3-6. Experimental conditions for all cells included 48 h in Medium 199 supplemented with 1% FBS prior to initiating and experiment.
# c-myb [2] = assay: c-myb expression in N-VSMC (RT-PCR, immunoprecipitation and western blot); format: cell-based, chicken; settings: for effect on homocysteine-induced c-myb induction: 200 μM H[cys], 50 μM Mk-801 or 1 mM CGS19755, 24 hours
# Procedure: FIGS. 3A, 3B and 3C are RNA blot analyses of c-fos and c-myb mRNA isolated from N-VSMC cultures. Cultures were incubated in the absence and presence of 200μM H[cys] for 0, (lane 1); 15 min, (lane 2); 30 min, (lane 3); 45 min, (lane 4) and 60 min, (lane 5); and analyzed for c-fos expression. In FIG. 3B, the time course of c-myb MRNA induction in the presence of 200μM H[cys] for 0 h, (lane 1); 8 h, (lane 2); 16 h, (lane 3); 24 h, (lane 4). The c-fos transcripts were analyzed by northern blot and normalized to β actin expression. The amount of c-myb mRNA levels were normalized to estrogen receptor (ER) transcripts as determined by RT-PCR. […] The amount of c-myb mRNA levels were normalized to estrogen receptor (ER) transcripts as determined by RT-PCR. The amount of specific radiolabeling in the autoradiograph was quantified by scanning densitometry. The size of the c-Myb protein is 75 kilodaltons. The 75 kilodalton band is defined as c-Myb because immunoprecipitation of this protein was not detected in the presence of synthetic polypeptide [[…] encoded by sequences 1080-1133].
# FIG. 4 is a graph illustrating the analysis of c-myb synthesis in response to NMDA receptor antagonist, Mk-801 and CGS19755. Immunoprecipitation and western blotting of radiolabeled c-Myb from N-VSMC treated with 200μMH[cys] in the presence and absence of 50 μM Mk-801 or 1 mM CGS19755. Cell cultures were treated with and without H[cys] for 24 hours, extracts were immunoprecipitated with anti c-myb IgG and samples were separated by SDS-PAGE gels and western blotted. The amount of specific radiolabeling in the autoradiograph was quantified by scanning densitometry. The size of the c-Myb protein is 75 kilodaltons. The 75 kilodalton band is defined as c-Myb because immunoprecipitation of this protein was not detected in the presence of synthetic polypeptide [I13-[…] encoded by sequences 1080-1133].
# RNA Blot Analysis: Total RNA was isolated from VSMC derived from thoracic and abdominal aorta by homogenization, and lysis with guanidinium isothiocyanate was followed by phenol-chloroform extraction. Ten micrograms of total RNA per lane was separated in a 1.5% agarose-formaldehyde gel, and the RNA was transferred by capillary transfer to a 0.45 μm nylon membrane. Filters were hybridized as previously with cDNAs labeled with [^32P]deoxycytidine5′-triphosphate to specific activities of approximately 2×10^9 cpm/μg using a random prime labeling kit (Boehringer Mannheim Biochemicals, Indianapolis, Ind.). The probes included chicken c-fos, Bactin, estrogen receptor (ER) and c myb.
# Reverse Transcriptase-Polymerase Chain Reaction: Reverse transcription of 4 to 10,000 nanograms (ng) of RNA using 10 picomoles (pm) of hexamer primers was performed for 90 minutes (min) at 37° C. using 200 units superscript reverse transcriptase (Gibco BRL), in 50 mM Tris, pH, 8.2, 75 Mm KC1, 3 mM MgCl2, 10 mM dithiothreitol (DTT), 1 unit/μ1 RNasin (Promega), and 1 mM each of DATP, dCTP, dGTP, and dTTP. The samples were heated at 95° C. for 5 min to terminate the reverse transcription. The resulting cDNA was treated with 1 unit of […] at 37° C. for 20 min. A 5% fraction of the cDNA was subjected to PCR using c-myb upstream (5′ggTCCTTTgAAgATgCTgCC3′) and downstream(5′[…]gAgTCCgggTTg3′) primers; estrogen receptor (ER) (5′ggACTgCCAgCTgCCgATCTT3′) and (5′CTCACgAATgTggCgCCT3′) primers; β actin (5′AAgAggTAATCCTgACCCCTgAA3′) and (5′ACCCTgACCATCAgggAgTTCA3′) primers. PCR was performed using 0.25 μM of each primer, 3 μM cDNA, 0.2 mM of each deoxynucleotide triphosphate, 75 mM KC1, 1.5 mM MgCl2 and 0.5 unit Taq polymerase (Perkin Elmer; Cetus) in 10 mM Tris-HC1, pH 8.3 with total volume of 100 μl. […] PCR products were analyzed by electrophoresis in 1.5% agarose gels stained with ethidium bromide. PCR amplifications of all target templates and controls were run in parallel or on the same sample. […]
# TA-VSMCs = assay: [3H]thymidine labeling (DNA synthesis) in TA-VSMCs; format: cell-based
# Source text: Effect of calcium channel activation on DNA synthesis. Effect of glutamate receptor calcium channels and L-type calcium channels activation was examined by measuring [^3H]thymidine labeling.
# c-myb [3] = assay: c-myb expression in TA-VSMCs; format: cell-based; settings: NMDA receptor blockers
# [4] = test system: Thoracic aorta VSMC from E14 embryos; assay: Intracellular Ca++ by Fura 2 fluorometry; format: cell-based, chicken; settings: 15 min pretreatment
# Procedure: FIGS. 8A and 8B are graphs illustrating E14 embryonic neural crest-derived response to Hcy. (A) Normal E14 cell response; (B) Ca++ influx is prevented by 15 min pretreatment with NMDA receptor blocker MK801, which acts at the NMDA receptor calcium channel.
# The most common signaling device for mitosis is calcium influx. Therefore, the inventors measured the change in intracellular Ca^++ by Fura 2 fluorometry. Thoracic aorta VSMC from E14 embryos were harvested and grown on coverslips using the procedure set forth above. Fura 2 was added during 45 minutes at room temperature. Then the cover slips were placed in a photometer. Fura 2 was excited at 350 and 380 nm with a xenon light source, appropriate monochromators and a chopper (Deltascan, Princeton). Emitted signals passed through a 510±20 band pass filter. When the cells were treated with a solution of 200 μM Hcy, there was a rapid flux of Ca^++ that reached a plateau in about 50 seconds, and remained elevated for the duration of the 500 sec measurement interval as shown in FIGS. 8A and 8B. Similar results have been found with adult rabbit aortic smooth muscle cells, as set forth below.
# N-VSMC [5] = assay: [3H]thymidine incorporation (DNA synthesis) in N-VSMC cultures; format: cell-based, chicken
# Procedure: FIG. 1 is a graph illustrating homocysteine's effects on the growth of VSMC cultures. Confluent N-VSMC cultures were growth arrested by incubating cells with M199 medium containing 1 μg/ml BSA for 48 h, exposed to various concentrations of H[cys] (0.01-4000μM) for 30 h, pulse labeled for 6 h with 2 μCi/ml [^3H]-thymidine, and cell monolayers were washed twice with cold (0° C.) 10% trichloroacetic acid (TCA). The amount of [^3H]-thymidine incorporation was determined by scintillation spectrophotometry. Results are shown as the means of ±S.D.
# FIGS. 2A-2C are graphs illustrating the effects of glutamate, homocysteic acid and NMDA on DNA synthesis in N-VSMC. N-VSMC were cultured and serum-deprived as described in “Experimental Procedures.” Cultures were treated with various concentrations of homocysteic acid (2A), NMDA (2B), or L-glutamate (2C) for 30 and pulsed 6h with [^3H] thymidine. All values are expressed as ±S.D. of six independent experiments completed in quadruplicate.
# as §1
# DNA Synthesis: Growth factors were added directly to quiescent VSMCs in Medium 199 as described above. The cells were pulsed between 4-6 h with a final concentration of 2-5 μCi/ml [^3H]thymidine added at the times and for the periods indicated in the figure legends. The cells were washed, and the incorporation of [^3H]thymidine into acid insoluble material was determined as previously described. Den-Heijer, M. et al. (1996), Hyperhomocystinemia as a risk factor for deep-vein thrombosis. N. Eng. J. Med. 334(12):759-762.
# [6] = high doses; cited from earlier work
# VSMC = settings: low concentrations
compound,measurement,setting,value
O=C(O)[C@@H]1C[C@H](CP(=O)(O)O)CCN1 [CGS 19755],effect on homocysteine-induced cell proliferation,N-VSMC [1],inhibited; also recorded: no increase in cell proliferation
same,effect on homocysteine-induced cell proliferation,N-VSMC [1]; listed as CGS19755,block
same,effect on homocysteine-induced c-myb induction,c-myb [2],blocked
same,effect on homocysteine-induced c-myb induction,c-myb [2]; listed as CGS19755,block
same,effect on NMDA and homocysteine DNA synthesis responses,TA-VSMCs,blocked
same,effect on homocysteine effect on c-myb expression,c-myb [3],blocked
O=C(O)CN(CCOCCOCCN(CC(=O)O)CC(=O)O)CC(=O)O [EGTA],effect on stimulation of DNA synthesis,TA-VSMCs; chelation of extra cellular Ca2+ by addition to the medium,prevented
C[C@]12N[C@H](Cc3ccccc31)c1ccccc12 [MK-801],effect on homocysteine-induced cell proliferation,N-VSMC [1],inhibited
same,effect on homocysteine-induced cell proliferation,N-VSMC [1]; listed as Mk-801,block
same,effect on homocysteine-induced c-myb induction,c-myb [2],completely suppressed; also recorded: block
same,effect on NMDA and homocysteine DNA synthesis responses,TA-VSMCs,blocked
same,effect on homocysteine effect on c-myb expression,c-myb [3],blocked
same,effect on Hcy-induced Ca++ influx,[4],prevented
"CN[C@H](CC(=O)O)C(=O)O [NMDA, N-methyl D-aspartate acid]",activation of the same responses as H[cys],N-VSMC [5],do not significantly activate
same,[3H] thymidine incorporation stimulated,N-VSMC [5]; 10 mM,2 fold
same,"expression of Myb, agonist per se",c-myb [2]; embryonic smooth muscle cells,did not induce
same,[3H] thymidine increased,TA-VSMCs; incubated with NMDA,2 fold
COc1ccc2c(c[n+](C)c3c4cc5c(cc4ccc23)OCO5)c1OC.[Cl-] [cheleyrthrine chloride],effect on increase in cell number in the presence of H[cys],N-VSMC [1],blocked
same,cell damage after treatment for ten days,N-VSMC [1],did not permanently damage the cells
COc1ccc2c(c1)[C@]13CCCC[C@@H]1[C@H](C2)N(C)CC3 [dextromethorphan],side effects,[6],"drowsiness, nausea, and decreased coordination"
CCO [ethanol],effect on pharmacological effect of homocysteine in VSMC,VSMC,completely blocked
"N[C@@H](CCC(=O)O)C(=O)O [glutamate, L-glutamate]",activation of the same responses as H[cys],N-VSMC [5],do not significantly activate
same,[3H] thymidine incorporation stimulated,N-VSMC [5]; 10 mM,2 fold
N[C@@H](CCS(=O)(=O)O)C(=O)O [homocysteic acid],[3H] thymidine incorporation stimulated,N-VSMC [5]; 1 mM,2 fold
CN[C@@H]1C[C@H]2O[C@@](C)([C@@H]1OC)n1c3ccccc3c3c4c(c5c6ccccc6n2c5c31)C(=O)NC4 [staurosporine],effect on increase in cell number in the presence of H[cys],N-VSMC [1],blocked
same,cell damage after treatment for ten days,N-VSMC [1],did not permanently damage the cells
